The record followed here is patent US7632933B2, “Corticotropin releasing factor 2 receptor agonists” (priority 2002, dated 2009).

Molecules are shown by their SMILES. Like-named read-outs stand apart in the source and are kept apart here. Peptide text beside a SMILES is read from it. Where only a bound is given, the exact number is not on record here.

The target in one test is T1, CRF1R (Homo sapiens, UniProt P34998).
T1 sequence (P34998 24-415): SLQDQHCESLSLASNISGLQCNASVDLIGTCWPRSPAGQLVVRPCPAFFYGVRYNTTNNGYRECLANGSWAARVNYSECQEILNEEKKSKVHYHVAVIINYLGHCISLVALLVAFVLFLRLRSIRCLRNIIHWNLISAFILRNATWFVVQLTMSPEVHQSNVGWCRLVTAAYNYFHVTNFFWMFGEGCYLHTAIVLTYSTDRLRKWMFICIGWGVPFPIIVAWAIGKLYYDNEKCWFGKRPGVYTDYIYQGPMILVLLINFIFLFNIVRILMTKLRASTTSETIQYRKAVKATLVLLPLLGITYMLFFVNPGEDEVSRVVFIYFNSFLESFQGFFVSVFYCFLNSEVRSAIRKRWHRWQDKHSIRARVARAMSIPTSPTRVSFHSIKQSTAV
As to the kind of experiment: CRF1R agonist activity (EC50 and Emax), called comparative CRF binding. To be noted: CRF1R. The test is classed as cell-based. The source says: (§1) The pharmacological activity and selectivity of the peptides of present invention can be determined using published test procedures. See, e.g, U.S. patent application Ser. No. 09/799,978. Because CRF2R and CRF1R are homologous proteins, it is expected that a certain proportion of agonists for CRF2R will also function as agonists of CRF1R. As discussed above, activation of CRF1R induces activation of the HPA axis since increased corticosteroid production leads to skeletal muscle atrophy. In most cases in which an increase in muscle mass or function is desired, it is not desirable to activate the HPA axis.
(§2) Because it is desirable to discriminate binding between CRF2R, as compared with CRF1R, the assays described above may be conducted using a cell, or membrane from a cell, which expresses only CRF2R or the assays can be conducted with a recombinant source of CRF2R. Cells expressing both forms of CRFR may be modified using homologous recombination to inactivate or otherwise disable the CRF1R gene. Alternatively, if the source of CRFR contains more than one CRFR type, the background signal produced by the receptor which is not of interest must be subtracted from the signal obtained in the assay. […] Known antagonists of CRFRs include, but are not limited to, antalarmin (CRF1R selective), antisauvagine-30 (CRF2R selective) and astressin (nonselective for CRF1R/CRF2R).
(§3) Cell-based assays include the steps of contacting cells which express CRF1R or CRF2R with a peptide of the present invention or control and measuring activation of the CRFR by measuring the expression or activity of components of the CRFR signal transduction pathways.
(§4) For example, after contact with a peptide of the present invention, lysates of the cells can be prepared and assayed for induction of cAMP. cAMP is induced in response to Gαs activation. Because Gαs is activated by receptors other than CRFR and because a test peptide may be exerting its effect through CRFRs or by another mechanism, two control comparisons are relevant for determining whether the peptide increases levels of cAMP via activation of a CRFR. One control compares the cAMP level of cells contacted with the peptide and the cAMP level of cells contacted with a control compound (i.e., the vehicle in which the peptide is dissolved).
(§5) In one example, cAMP induction is measured with the use of DNA constructs containing the cAMP responsive element linked to any of a variety of reporter genes can be introduced into cells expressing CRFRs. Such reporter genes include, but are not limited to, chloramphenicol acetyltransferase (CAT), luciferase, glucuronide synthetase, growth hormone, fluorescent proteins (e.g., Green Fluorescent Protein), or alkaline phosphatase. Following exposure of the cells to the peptide, the level of reporter gene expression can be quantitated to determine the peptide's ability to increase cAMP levels and thus determine the peptide's ability to activate the CRFR.
(§6) In addition to using cells expressing full length CRFRs, cells can be engineered which express CRFRs containing the ligand binding domain of the receptor coupled to, or physically modified to contain, reporter elements or to interact with signaling proteins. For example, a wild type CRFR or CRFR fragment can be fused to a G-protein resulting in activation of the fused G-protein upon agonist binding to the CRFR portion of the fusion protein. […] In addition, alternative pathways for induction of the CRE reporter could be eliminated to reduce basal levels.

The next test has as its target T2, CRF2R (Homo sapiens, UniProt Q13324).
T2 sequence (Q13324 1-411): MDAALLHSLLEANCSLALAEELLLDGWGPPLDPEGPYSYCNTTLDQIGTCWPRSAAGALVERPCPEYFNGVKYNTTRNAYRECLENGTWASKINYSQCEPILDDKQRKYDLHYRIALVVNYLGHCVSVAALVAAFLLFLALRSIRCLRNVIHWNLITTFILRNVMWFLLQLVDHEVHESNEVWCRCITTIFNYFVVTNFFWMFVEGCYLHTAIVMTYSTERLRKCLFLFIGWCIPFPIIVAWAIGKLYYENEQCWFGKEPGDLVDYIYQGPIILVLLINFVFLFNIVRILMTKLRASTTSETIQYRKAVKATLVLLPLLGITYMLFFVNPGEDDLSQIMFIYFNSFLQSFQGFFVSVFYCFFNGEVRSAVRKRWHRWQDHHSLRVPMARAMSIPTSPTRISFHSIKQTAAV
The experiment in a line: CRF2R agonist activity (EC50 and Emax), called comparative CRF binding. To be noted: CRF2R. Type of test: cell-based.
Excerpt: as §1, §2, §3, §4, §5, §6

Turning to `CC[C@H](C)[C@H](N)C(=O)N[C@H](C(=O)N[C@@H](CC(C)C)C(=O)N[C@@H](CO)C(=O)N[C@@H](CC(C)C)C(=O)N[C@@H](CC(=O)O)C(=O)N[C@H](C(=O)N1CCC[C@H]1C(=O)N[C@H](C(=O)NCC(=O)N[C@@H](CC(C)C)C(=O)N[C@@H](CC(C)C)C(=O)N[C@@H](CCC(N)=O)C(=O)N[C@H](C(=O)N[C@@H](CC(C)C)C(=O)N[C@@H](CC(C)C)C(=O)N[C@@H](CCC(=O)O)C(=O)N[C@@H](CCC(N)=O)C(=O)N[C@H](C(=O)N[C@@H](CCCCN)C(=O)N[C@@H](C)C(=O)N[C@@H](CC(N)=O)C(=O)N[C@@H](C)C(=O)N[C@@H](C)C(=O)N[C@@H](CCCNC(=N)N)C(=O)N[C@@H](CCC(=O)O)C(=O)N[C@@H](CCC(N)=O)C(=O)N[C@@H](C)C(=O)N[C@H](C(=O)N[C@H](C(=O)N[C@H](C(=O)N[C@@H](C)C(=O)N[C@@H](CCCNC(=N)N)C(=O)N[C@H](C(=O)N[C@@H](CC(C)C)C(=O)N[C@@H](C)C(=O)N[C@@H](CCCNC(=N)N)C(=O)N[C@H](C(N)=O)C(C)C)[C@@H](C)CC)C(C)C)[C@@H](C)O)[C@@H](C)O)[C@@H](C)O)[C@@H](C)CC)[C@@H](C)CC)C(C)C)C(C)C` [compound 116] (H-IVLSLDVPIGLLQILLEQTKANAAREQATTVARILARV-NH2), the EC50 on CRF1R (read-out: CRF1R EC50) and on CRF2R (read-out: CRF2R EC50) was ≥ 100 nM throughout.
On to `CC[C@H](C)[C@H](N)C(=O)N[C@H](C(=O)N[C@@H](CC(C)C)C(=O)N[C@@H](CO)C(=O)N[C@@H](CC(C)C)C(=O)N[C@@H](CC(=O)O)C(=O)N[C@H](C(=O)N1CCC[C@H]1C(=O)N[C@H](C(=O)NCC(=O)N[C@@H](CC(C)C)C(=O)N[C@@H](CC(C)C)C(=O)N[C@@H](CCC(N)=O)C(=O)N[C@H](C(=O)N[C@@H](CC(C)C)C(=O)N[C@@H](CC(C)C)C(=O)N[C@@H](CCC(=O)O)C(=O)N[C@@H](CCC(N)=O)C(=O)N[C@@H](C)C(=O)N[C@@H](CCCCN)C(=O)N[C@@H](C)C(=O)N[C@@H](CCCNC(=N)N)C(=O)N[C@@H](C)C(=O)N[C@@H](C)C(=O)N[C@@H](CCCNC(=N)N)C(=O)N[C@@H](CCC(=O)O)C(=O)N[C@@H](CCC(N)=O)C(=O)N[C@@H](C)C(=O)N[C@H](C(=O)N[C@H](C(=O)N[C@@H](CC(N)=O)C(=O)N[C@@H](C)C(=O)N[C@@H](CCCNC(=N)N)C(=O)N[C@H](C(=O)N[C@@H](CC(C)C)C(=O)N[C@@H](C)C(=O)N[C@@H](CCCNC(=N)N)C(=O)N[C@H](C(N)=O)C(C)C)[C@@H](C)CC)[C@@H](C)O)[C@@H](C)O)[C@@H](C)CC)[C@@H](C)CC)C(C)C)C(C)C` [compound 127] (H-IVLSLDVPIGLLQILLEQAKARAAREQATTNARILARV-NH2; N-terminus assumed), for which, at CRF1R, the “CRF1R (Emax %)” value was “(6) %”. At CRF2R, the “CRF2R (Emax %)” value is “(94) %”. The EC50 on CRF2R (read-out: CRF2R EC50) came to 7.79 nM.
In the same order, the values of `CC[C@H](C)[C@H](N)C(=O)N[C@H](C(=O)N[C@@H](CC(C)C)C(=O)N[C@@H](CO)C(=O)N[C@@H](CC(C)C)C(=O)N[C@@H](CC(=O)O)C(=O)N[C@H](C(=O)N1CCC[C@H]1C(=O)N[C@H](C(=O)NCC(=O)N[C@@H](CC(C)C)C(=O)N[C@@H](CC(C)C)C(=O)N[C@@H](CCC(N)=O)C(=O)N[C@H](C(=O)N[C@@H](CC(C)C)C(=O)N[C@@H](CC(C)C)C(=O)N[C@@H](CCC(=O)O)C(=O)N[C@@H](CCC(N)=O)C(=O)N[C@H](C(=O)N[C@@H](CCCCN)C(=O)N[C@@H](C)C(=O)N[C@@H](CCCNC(=N)N)C(=O)N[C@@H](C)C(=O)N[C@@H](C)C(=O)N[C@@H](CCCNC(=N)N)C(=O)N[C@@H](CCC(=O)O)C(=O)N[C@@H](CCC(N)=O)C(=O)N[C@@H](C)C(=O)N[C@H](C(=O)N[C@H](C(=O)N[C@@H](CC(N)=O)C(=O)N[C@@H](C)C(=O)N[C@@H](CCCNC(=N)N)C(=O)N[C@H](C(=O)N[C@@H](CC(C)C)C(=O)N[C@@H](C)C(=O)N[C@@H](CCCNC(=N)N)C(=O)N[C@H](C(N)=O)C(C)C)[C@@H](C)CC)[C@@H](C)O)[C@@H](C)O)[C@@H](C)O)[C@@H](C)CC)[C@@H](C)CC)C(C)C)C(C)C` [compound 129] (H-IVLSLDVPIGLLQILLEQTKARAAREQATTNARILARV-NH2) are “(12) %”, “(92) %” and 3.83 nM.
For `CC[C@H](C)[C@H](N)C(=O)N[C@H](C(=O)N[C@@H](CC(C)C)C(=O)N[C@@H](CO)C(=O)N[C@@H](CC(C)C)C(=O)N[C@@H](CC(=O)O)C(=O)N[C@H](C(=O)N1CCC[C@H]1C(=O)N[C@H](C(=O)NCC(=O)N[C@@H](CC(C)C)C(=O)N[C@@H](CC(C)C)C(=O)N[C@@H](CCC(N)=O)C(=O)N[C@H](C(=O)N[C@@H](CC(C)C)C(=O)N[C@@H](CC(C)C)C(=O)N[C@@H](CCC(=O)O)C(=O)N[C@@H](CCC(N)=O)C(=O)N[C@@H](C)C(=O)N[C@@H](C)C(=O)N[C@@H](C)C(=O)N[C@@H](C)C(=O)N[C@@H](CCCNC(=N)N)C(=O)N[C@@H](CCC(=O)O)C(=O)N[C@@H](CCC(N)=O)C(=O)N[C@@H](C)C(=O)N[C@H](C(=O)N[C@H](C(=O)N[C@@H](CC(N)=O)C(=O)N[C@@H](C)C(=O)N[C@@H](CCCNC(=N)N)C(=O)N[C@H](C(=O)N[C@@H](CC(C)C)C(=O)N[C@@H](C)C(=O)N[C@@H](CCCNC(=N)N)C(=O)N[C@H](C(N)=O)C(C)C)[C@@H](C)CC)[C@@H](C)O)[C@@H](C)O)[C@@H](C)CC)[C@@H](C)CC)C(C)C)C(C)C` [compound 134] (H-IVLSLDVPIGLLQILLEQAAAAREQATTNARILARV-NH2), the EC50 at CRF1R (CRF1R EC50 (nM)) and on CRF2R (CRF2R EC50 (nM)) was > 100 nM throughout.
For `CC[C@H](C)[C@H](N)C(=O)N[C@H](C(=O)N[C@@H](CC(C)C)C(=O)N[C@@H](CO)C(=O)N[C@@H](CC(C)C)C(=O)N[C@@H](CC(=O)O)C(=O)N[C@H](C(=O)N1CCC[C@H]1C(=O)N[C@H](C(=O)NCC(=O)N[C@@H](CC(C)C)C(=O)N[C@@H](CC(C)C)C(=O)N[C@@H](CCC(N)=O)C(=O)N[C@H](C(=O)N[C@@H](CC(C)C)C(=O)N[C@@H](CC(C)C)C(=O)N[C@@H](CCC(=O)O)C(=O)N[C@@H](CCC(N)=O)C(=O)N[C@@H](C)C(=O)N[C@@H](C)C(=O)N[C@@H](CCCNC(=N)N)C(=O)N[C@@H](C)C(=O)N[C@@H](C)C(=O)N[C@@H](CCCNC(=N)N)C(=O)N[C@@H](CCC(=O)O)C(=O)N[C@@H](CCC(N)=O)C(=O)N[C@@H](C)C(=O)N[C@H](C(=O)N[C@H](C(=O)N[C@@H](CC(N)=O)C(=O)N[C@@H](C)C(=O)N[C@@H](CCCNC(=N)N)C(=O)N[C@H](C(=O)N[C@@H](CC(C)C)C(=O)N[C@@H](C)C(=O)N[C@@H](CCCNC(=N)N)C(=O)N[C@H](C(N)=O)C(C)C)[C@@H](C)CC)[C@@H](C)O)[C@@H](C)O)[C@@H](C)CC)[C@@H](C)CC)C(C)C)C(C)C` [compound 135] (H-IVLSLDVPIGLLQILLEQAARAAREQATTNARILARV-NH2), the EC50 on CRF1R (read-out: CRF1R EC50) and on CRF2R (read-out: CRF2R EC50) was > 100 nM each time.
